What all share (type): functional
Experiment [1] concerns Tetranychus urticae. The experiment in a line: Resistant ratio, LC50 for Tetranychus urticae FPY 14 (two-spotted spider mite) to LC50 for Tetranychus urticae GSS.
Experiment [2] concerns Tetranychus urticae. The experiment in a line: Insecticidal activity against Tetranychus urticae FPY 14 (two-spotted spider mite) assessed as mortality at 26 +/- 2 degC with 60 +/- 5% RH for first 24 hr.
For experiment [3], the system named is Tetranychus urticae. The experiment in a line: Insecticidal activity against Tetranychus urticae GSS (two-spotted spider mite) assessed as mortality at 26 +/- 2 degC with 60 +/- 5% RH for first 24 hr.

Regarding `CCOP(=S)(OCC)Oc1nc(Cl)c(Cl)cc1Cl` [CHLORPYRIFOS], in the experiment with Tetranychus urticae [1], the RatioLC50 is on record as 6.9. The LC50 was determined as 85.84 mgAi/L with Tetranychus urticae [2] and 12.44 mgAi/L in the experiment on Tetranychus urticae [3].
The matching figures for `Cc1ccc(/N=C/N(C)/C=N/c2ccc(C)cc2C)c(C)c1` [AMITRAZ]: 2.78, 167.13 mgAi/L and 60.07 mgAi/L.
Turning to `C#CCOS(=O)OC1CCCCC1Oc1ccc(C(C)(C)C)cc1` (configuration not stated) [PROPARGITE], the RatioLC50 with Tetranychus urticae [1] came to 6.43. The LC50 is 482.52 mgAi/L with Tetranychus urticae [2] and 75 mgAi/L with Tetranychus urticae [3].
In the case of `Cc1nn(C)c(Oc2ccccc2)c1/C=N/OCc1ccc(C(=O)OC(C)(C)C)cc1` [FENPYROXYMATE], the LC60 in the experiment with Tetranychus urticae [2] is on record as 319.1 mgAi/L; in the experiment with Tetranychus urticae [3] it was 5.1 mgAi/L. The LC90 in the experiment with Tetranychus urticae [2] was determined as 1637.86 mgAi/L; in the experiment with Tetranychus urticae [3], 29.5 mgAi/L.
For the compound `Clc1ccccc1-c1nnc(-c2ccccc2Cl)nn1` [CLOFENTEZINE], the RatioLC50 with Tetranychus urticae [1] was 4.78. For the same compound, the LC50 was 68.52 mgAi/L in the experiment with Tetranychus urticae [2] and 14.32 mgAi/L in the experiment with Tetranychus urticae [3].
As to `CC[C@H](C)[C@H]1O[C@]2(C=C[C@@H]1C)C[C@@H]1C[C@@H](C/C=C(\C)[C@@H](O[C@H]3C[C@H](OC)[C@@H](O[C@H]4C[C@H](OC)[C@@H](O)[C@H](C)O4)[C@H](C)O3)[C@@H](C)/C=C/C=C3\CO[C@@H]4[C@H](O)C(C)=C[C@@H](C(=O)O1)[C@]34O)O2.CO[C@H]1C[C@H](O[C@H]2[C@H](C)O[C@@H](O[C@@H]3/C(C)=C/C[C@@H]4C[C@@H](C[C@]5(C=C[C@H](C)[C@@H](C(C)C)O5)O4)OC(=O)[C@@H]4C=C(C)[C@@H](O)[C@H]5OC/C(=C\C=C\[C@@H]3C)[C@]54O)C[C@@H]2OC)O[C@@H](C)[C@@H]1O` [ABAMECTIN], the RatioLC50 with Tetranychus urticae [1] is reported as 7.8. For the same compound, the LC50 in the experiment on Tetranychus urticae [2] came to 1.56 mgAi/L; in the experiment with Tetranychus urticae [3], 0.2 mgAi/L.
On to `Cc1c(COC(=O)[C@@H]2[C@H](/C=C(\Cl)C(F)(F)F)C2(C)C)cccc1-c1ccccc1` (relative stereo) [BIFENTHRIN], for which, in the experiment on Tetranychus urticae [1], the RatioLC50 was below 1. The LC50 worked out at 12.77 mgAi/L in the experiment on Tetranychus urticae [2] and 54.53 mgAi/L with Tetranychus urticae [3].

(Values after ChEMBL document CHEMBL3045008, “Toxicity, inheritance of fenpyroximate resistance, and detoxification-enzyme levels in a laboratory-selected fenpyroximate-resistant strain of Tetranychus urticae Koch (Acari: Tetranychidae)” (2011).)
